Bridge positions count the residues as written; N and C are the ends. Peptide text beside a SMILES is read from it.
Assays:
Assay type in all cases: toxicity
[1] = (§1) Cytotoxicity against human 1BR.3.GN cells assessed as cell proliferation at 50 nM measured after 4 days by xCELLigence based analysis relative to control; conditions: 1BR.3.GN cells, time 4 day, read-out: Activity
1BR.3.GN [2] = assay: as §1; conditions: 1br.3.gn, 96 h, 0.05 µM, time 4 day
1BR.3.GN [3] = assay: Cytotoxicity against human 1BR.3.GN cells assessed as cell proliferation at 1250 nM measured after 4 days by xCELLigence based analysis; conditions: 96 h, 1.25 µM, time 4 day

| Molecule | viability at 96 h, 0.05 µM [1] | Activity (1BR.3.GN [2]) | Activity (1BR.3.GN [3]) |
| --- | --- | --- | --- |
| CC[C@H](C)[C@H](NC(=O)[C@@H]1CSSC[C@@H]2NC(=O)[C@H](Cc3ccccc3)NC(=O)[C@H](CO)NC(=O)[C@H](CCCNC(=N)N)NC(=O)[C@@H]3CSSC[C@H](NC(=O)[C@H](CCCCN)NC(=O)[C@H](CCC(N)=O)NC(=O)[C@H](CC(=O)O)NC(=O)[C@@H]4CCCN4C2=O)C(=O)N[C@@H](CC(C)C)C(=O)N[C@@H](CCCCN)C(=O)N[C@@H](CC(=O)O)C(=O)N[C@@H](CSSC[C@H](N)C(=O)N[C@@H](C)C(=O)N2CCC[C@H]2C(=O)N[C@@H](CCC(=O)O)C(=O)N3)C(=O)NCC(=O)N1)C(=O)O (H-CAPECRSFCPDQKCLKDCGCI-OH; disulfide 1-18, 5-14, 9-20) | > 15% |  |  |
| H-FNPVGVAFKGNNGKYLSRIHRSGIDYTEFAKDNTD-OH |  | Non-Toxic | Non-Toxic |

— ChEMBL document CHEMBL5120921, “Newly Discovered Peptides from the Coral Heliofungia actiniformis Show Structural and Functional Diversity” (J Nat Prod, 2022)
